The values below come from patent US12364738B2, “Composition comprising at least one enzyme and at least one microbicidal molecule for the prevention or treatment of post-implant infections” (ONELIFE S.A., priority 2016, dated 2025).

Where two headings read alike, the source gives them in different places. Marks after values point to notes of the source that are not given here.

The conditions of series [1]: cited from earlier work.
The test system of series [2] is isolate 7, E. faecalis strain 9794 (urinary catheter), biofilm. The following applies: static model, 24 h biofilm, 24 h treatment, ciprofloxacin 0.15 to 40 mg/L.
Procedure: (§1) The measurement was conventionally carried out by absorption photometry (measurement at 590 nm with the Spectramax M4 equipment).
(§2) From each of the isolates given in table 1, biofilms (n=4) were developed over 24 hours at a temperature of 37° C. in the wells of a 96-well plate containing 200 μL of a TSB culture medium (Tryptic Soy Broth VWR) supplemented with 1% glucose and 2% sodium chloride.
(§3) Before proceeding with the measurement of the viability of the bacterial cells with resazurin, the plates containing the developed biofilms were washed with a PBS buffer (pH=7.4) then incubated with resazurin (0.01 mg/L) for 1 hour in the dark.
The test system of series [3] is isolate 11, P. aeroginosa strain 04/190 (urinary catheter), biofilm. The conditions noted are these: static model, 24 h biofilm, 24 h treatment, ciprofloxacin 0.15 to 40 mg/L.
Procedure: as §1, §2, §3
The test system of series [4] is isolate 5, E. coli strain 6081 (urinary catheter), biofilm. The following applies: static model, 24 h biofilm, 24 h treatment, ciprofloxacin 0.15 to 40 mg/L.
Procedure: as §1, §2, §3
Series [5] has as its system isolate 6, E. coli strain 5701 (orthopaedic implant), biofilm. The following applies: static model, 24 h biofilm, 24 h treatment, ciprofloxacin 0.15 to 40 mg/L.
Procedure: as §1, §2, §3
Series [6] relates to isolate 3, S. aureus MRSA strain 80124474762 (knee screw), biofilm. The conditions noted are these: static model, 24 h biofilm, 24 h treatment, ciprofloxacin 0.15 to 40 mg/L.
Procedure: as §1, §2, §3
In series [7] the test system is isolate 1, S. aureus isolated from a pacemaker, biofilm. The experiment in a line: Confocal microscopic images with LIVE/DEAD staining, isolate 1. It is filed as cell-based. The conditions noted are these: 24 h biofilm, 24 h treatment, ciprofloxacin 1 mg/L, FIGS. 4 and 5. On the procedure:
For isolate 1 (S. aureus isolated from a pacemaker on which a biofilm developed in the human body after implantation), confocal images were taken and correspond to FIGS. 3 to 5.
Before obtaining the different images, staining was carried out with the LIVE/DEAD kit (Invitrogen) for 30 minutes before rinsing with a PBS buffer.

Series [8] shares this test system. The following applies: dynamic model, 48 h biofilm on PEG protrusions, 24 h treatment, agitation 120 RPM.
Procedure: (§4) In order to judge the effectiveness of a post-implantation treatment carried out with a composition according to the invention, the viability of the bacteria was measured by following the development of the colour of the resazurin (7-Hydroxy-3H-phenoxazin-3-on 10-oxide), this colour changing according to the redox potential which depends on microbial activity. The measurement was conventionally carried out by absorption photometry (measurement at 590 nm with the Spectramax M4 equipment).
(§5) Before proceeding with the measurement of the viability of the bacterial cells with resazurin, the PEG plates with the protrusions containing the developed biofilms were incubated with resazurin for 2 hours in the dark.
Series [9] concerns isolate 4, S. epidermis strain 80224420266 (central venous catheter), biofilm. The following applies: static model, 24 h biofilm, 24 h treatment, ciprofloxacin 0.15 to 40 mg/L.
Procedure: as §1, §2, §3
In series [10] the test system is isolate 2, S. aureus MRSA strain 80224422456 (knee prosthesis), biofilm. The conditions noted are these: static model, 24 h biofilm, 24 h treatment, ciprofloxacin 0.15 to 40 mg/L.
Procedure: as §1, §2, §3
For series [11], the system named is isolate 1, S. aureus MRSA strain 80124430375 (pacemaker), biofilm. The conditions noted are these: static model, 24 h biofilm, 24 h treatment, ciprofloxacin 0.15 to 40 mg/L.
Procedure: as §1, §2, §3
For series [12], the system named is isolate 8, E. faecalis strain 9781 (urinary catheter), biofilm. The conditions noted are these: static model, 24 h biofilm, 24 h treatment, ciprofloxacin 0.15 to 40 mg/L.
Procedure: as §1, §2, §3
For series [13], the system named is isolate 9, E. faecalis strain 9555 (urinary catheter), biofilm. The following applies: static model, 24 h biofilm, 24 h treatment, ciprofloxacin 0.15 to 40 mg/L.
Procedure: as §1, §2, §3
Series [14] concerns isolate 5, E. coli isolated from a urinary catheter, biofilm. The following applies: dynamic model, 48 h biofilm on PEG protrusions, 24 h treatment, agitation 120 RPM.
Procedure: as §4, §5
Series [15] has as its system isolate 10, P. aeroginosa strain DIV5508 (central venous catheter), biofilm. The following applies: static model, 24 h biofilm, 24 h treatment, ciprofloxacin 0.15 to 40 mg/L.
Procedure: as §1, §2, §3
The mark [16] stands for this setting: serum, after administration of the antibiotic, based on EUCAST, used as test concentration.

With `C[C@@H](O)[C@H]1C(=O)N2C(C(=O)O)=C(S[C@@H]3CN[C@H](C(=O)N(C)C)C3)[C@H](C)[C@H]12` [meropenem], the “Cmin, minimum serum concentration” value in series [1] (in vivo) is 100 ng/mL. In addition, the “Cmax, maximum serum concentration after administration of the antibiotic” value (“Cmax, maximum serum concentration” for short) in series [1] (setting [16]) was 20000 ng/mL.
For `NCC[C@H](O)C(=O)N[C@@H]1C[C@H](N)[C@@H](O[C@H]2O[C@H](CN)[C@@H](O)[C@H](O)[C@H]2O)[C@H](O)[C@H]1O[C@H]1O[C@H](CO)[C@@H](O)[C@H](N)[C@H]1O` [amikacin], the “Cmin, minimum serum concentration” value in series [1] (in vivo) was 5000 ng/mL. In [1] (setting [16]), the “Cmax, maximum serum concentration” value is 24000 ng/mL.
In the case of `COc1c(N2C[C@@H]3CCCN[C@@H]3C2)c(F)cc2c(=O)c(C(=O)O)cn(C3CC3)c12` [moxifloxacin], in series [1] (setting [16]), the “Cmax, maximum serum concentration” value was 3600 ng/mL and the “Cmin, minimum serum concentration” value is 300 ng/mL.
For `O=C(O)c1cn(C2CC2)c2cc(N3CCNCC3)c(F)cc2c1=O` [solution A, ciprofloxacin], the “Concentration of the antibiotic molecule in a solution comprising the antibiotic alone (solution A) to reduce the viability of the bacteria by 50% (EC50)” value was >40 µg/mL in series [2]; >40 µg/mL in [3]; 2.7 µg/mL in series [4]; >40 µg/mL in series [5]; 1.2 µg/mL in series [6]; 0.7 µg/mL in series [8]. Further, the “Concentration of the antibiotic molecule in a solution comprising the antibiotic alone (solution A) to reduce the viability of the bacteria by 50% (EC50)” value in [9] is 1.77 µg/mL; in series [10], 0.8 µg/mL; in series [11], >40^a mg/L; in series [12], >40 µg/mL; in series [13] it was >40 µg/mL; in series [14], 3.18 µg/mL. Besides, in series [15], the “Concentration of the antibiotic molecule in a solution comprising the antibiotic alone (solution A) to reduce the viability of the bacteria by 50% (EC50)” value was >40 µg/mL. In addition, in series [1] (setting [16]), the “Cmin, minimum serum concentration” value is 600 ng/mL. The “live/dead state of the bacteria in confocal images” value in series [7] is on record as “numerous bacteria are still alive”.
As to `NC[C@H]1O[C@H](O[C@H]2[C@H](O)[C@@H](O[C@H]3O[C@H](CO)[C@@H](O)[C@H](N)[C@H]3O)[C@H](N)C[C@@H]2N)[C@H](N)C[C@@H]1O` [tobramycin], in series [1] (in vivo), the “Cmin, minimum serum concentration” value was 900 ng/mL. The “Cmax, maximum serum concentration” value in series [1] (setting [16]) is 4000 ng/mL.
